# Measurements as given in US5500423A, “5,6-dihydro-4H-imidazo[4,5,1-ij]quinolines” (Hoechst-Roussel Pharmaceuticals Inc., priority 1994, dated 1996).
# Structures can show the parent of a compound that is named as a salt.
# System: mice
# Assay: phenyl-p-quinone writhing assay in mice (analgesia)
# Assay type: in vivo
# Conditions: Mus musculus, sc, 0.5 h, read-out: % Inhibition of Writhing
row,Compound,inhibition in vivo at 20 mg/kg [%]
1,"c1cc2c3c(c1)nc(N1CCNCC1)n3CCC2 [5,6-Dihydro-2-(1-piperazinyl)-4H-imidazo[4,5,1-ij]quinoline dihydrochloride]",57
2,"c1cc2c3c(c1)nc(C1CCNCC1)n3CCC2 [2-(4-Piperidinyl)-5,6-dihydro-4H-imidazo[4,5,1-ij]quinoline fumarate]",31

# Same assay, conditions: Mus musculus, sc, 0.5 h; 20 mg/kg subcutaneous, 30 minutes before injection of phenylquinone; mice; read-out: % Inhibition of Writhing
row,Compound,inhibition in vivo at 20 mg/kg [%]
1,"c1cc2c3c(c1)nc(N1CCSCC1)n3CCC2 [5,6-Dihydro-2-(4-thiomorpholinyl)-4H-imidazo[4,5,1-ij]quinoline hydrochloride]",53
2,"Fc1ccc(C(CCCN2CCN(c3nc4cccc5c4n3CCC5)CC2)c2ccc(F)cc2)cc1 [4-[4,4-Bis(4-fluorophenyl)-butyl]-1-piperazinyl-5,6-dihydro-4H-imidazo[4,5,1-ij]quinoline]",43
3,"c1cc2c3c(c1)nc(N1CCCCC1)n3CCC2 [5,6-Dihydro-2-(1-piperidinyl)-4H-imidazo[4,5.1-ij]quinoline hydrochloride]",68
4,"CC(=O)N1CCC(c2nc3cccc4c3n2CCC4)CC1 [1-Acetyl-4-[5,6-dihydro-4H-imidazo[4,5,1-ij]quinolin-2-yl]piperidine]",51
5,"c1ccc(CCN2CCN(c3nc4cccc5c4n3CCC5)CC2)cc1 [5,6-Dihydro-2-(4-phenylethyl-1-piperazinyl)-4H-imidazo[4,5,1-ij]quinoline]",45
6,"CN(C)C1CCN(c2nc3cccc4c3n2CCC4)CC1 [5,6-Dihydro-2-(4-dimethylamino-1-piperidinyl)-4H-imidazo[4,5,1-ij]quinolinefumarate]",48
7,"CCOC(=O)N1CCN(c2nc3cccc4c3n2CCC4)CC1 [Ethyl-4-[5,6-dihydro-4H-imidazo[4,5,1-ij]quinolin-2-yl]-1-piperazinecarboxylate fumarate]",47

# Same assay, conditions: Mus musculus, sc, read-out: % Inhibition of Writhing
row,Compound,inhibition in vivo at 5 mg/kg [%]
1,"CCC(=O)O[C@](Cc1ccccc1)(c1ccccc1)[C@H](C)CN(C)C [propoxyphene, reference compound]",19
